According to US7718160B2, “Radiolabeled compounds and liposomes and their method of making and using same” (The Board of Regents of the University of Texas System, priority 2002, dated 2010):
Entries after “also recorded” stand apart in the source; their conditions may differ. One block for each compound: values may come before it.

Key:
Type in all cases: in vivo
[1] = Normal rat biodistribution of ^186Re-liposomes at 72 hours after intravenous injection
[2] = Gamma camera images of normal rats after intravenous injection (^186Re); settings: rat, baseline, 1 hour, 4 hours, 24 hours and 72 hours after intravenous injection
[3] = Normal rat biodistribution of ^99mTc-liposomes at 20 hours after intravenous injection
Description: For comparison, biodistributions of the ^99mTc-“SNS/S” complexes used for liposome labeling were also performed.

[4] = Gamma camera images of normal rats after intravenous injection (^99mTc); settings: rat, baseline, 1 hour, 4 hours and 20 hours after intravenous injection
Source text: (H: Heart; S: Spleen; L: Liver; Bo: Bowel; B1: Bladder.)
(H: Heart; S: Spleen; L: Liver; Bo: Bowel.)
From the images, significant differences between ^99mTc-liposome labeled with ^99mTc-“BMEDA” and ^99mTc-“BMEDA” alone were observed. […] From the images, significant differences between ^99mTc-liposome labeled with ^99mTc-“BMEDA+BT” and ^99mTc-“BMEDA+BT” alone were observed.

- % ID/Gram (Average ± Sd), Blood ([1]; normal rat): 0.022 ± 0.001 % ID/Gram
- % ID/Gram (Average ± Sd), Bowel ([1]; normal rat): 0.34 ± 0.19 % ID/Gram
- % ID/Gram (Average ± Sd), Brain ([1]; normal rat): 0.0035 ± 0.0007 % ID/Gram
- % ID/Gram (Average ± Sd), Feces ([1]; normal rat): 4.82 ± 1.53 % ID/Gram
- % ID/Gram (Average ± Sd), Femur ([1]; normal rat): 0.014 ± 0.000 % ID/Gram
- % ID/Gram (Average ± Sd), Heart ([1]; normal rat): 0.069 ± 0.007 % ID/Gram
- % ID/Gram (Average ± Sd), Kidney ([1]; normal rat): 4.49 ± 0.37 % ID/Gram
- % ID/Gram (Average ± Sd), Liver ([1]; normal rat): 0.54 ± 0.05 % ID/Gram
- % ID/Gram (Average ± Sd), Lung ([1]; normal rat): 0.23 ± 0.03 % ID/Gram
- % ID/Gram (Average ± Sd), Muscle ([1]; normal rat): 0.0048 ± 0.0005 % ID/Gram
- % ID/Gram (Average ± Sd), Skin ([1]; normal rat): 0.029 ± 0.012 % ID/Gram
- % ID/Gram (Average ± Sd), Spleen ([1]; normal rat): 0.38 ± 0.14 % ID/Gram
- % ID/Gram (Average ± Sd), Testis ([1]; normal rat): 0.015 ± 0.003 % ID/Gram
- % ID/Gram (Average ± Sd), Urine ([1]; normal rat): 0.79 ± 0.08 % ID/Gram
- % ID/Organ (Average ± Sd), Blood ([1]; normal rat): 0.49 ± 0.04 % ID/Organ
- % ID/Organ (Average ± Sd), Bowel ([1]; normal rat): 6.67 ± 3.31 % ID/Organ
- % ID/Organ (Average ± Sd), Brain ([1]; normal rat): 0.0052 ± 0.0007 % ID/Organ
- % ID/Organ (Average ± Sd), Feces ([1]; normal rat): 20.54 ± 4.35 % ID/Organ
- % ID/Organ (Average ± Sd), Femur ([1]; normal rat): 0.58 ± 0.06 % ID/Organ
- % ID/Organ (Average ± Sd), Heart ([1]; normal rat): 0.076 ± 0.005 % ID/Organ
- % ID/Organ (Average ± Sd), Kidney ([1]; normal rat): 10.42 ± 0.93 % ID/Organ
- % ID/Organ (Average ± Sd), Liver ([1]; normal rat): 5.97 ± 0.35 % ID/Organ
- % ID/Organ (Average ± Sd), Lung ([1]; normal rat): 0.37 ± 0.06 % ID/Organ
- % ID/Organ (Average ± Sd), Muscle ([1]; normal rat): 0.79 ± 0.07 % ID/Organ
- % ID/Organ (Average ± Sd), Skin ([1]; normal rat): 1.48 ± 0.51 % ID/Organ
- % ID/Organ (Average ± Sd), Spleen ([1]; normal rat): 0.21 ± 0.05 % ID/Organ
- % ID/Organ (Average ± Sd), Testis ([1]; normal rat): 0.058 ± 0.004 % ID/Organ
- % ID/Organ (Average ± Sd), Urine ([1]; normal rat): 26.93 ± 4.23 % ID/Organ
SMILES: CCN(CC)CCN(CCS)CC[S][186Re]1(=[O])[S]CCN(CCN(CC)CC)CC[S]1 [^186Re-“BMEDA” Alone]
- spleen accumulation ([1]; rat): did not show the spleen accumulation behavior
- distribution seen in gamma camera images [2]: significant excretion from the hepatobiliary system and no apparent spleen accumulation; also recorded: fast blood clearance, fast excretion into bowel and urine, and no spleen accumulation
- distribution seen in gamma camera images ([2]; listed as 186Re-“BMBDA” alone): fast blood clearance, fast excretion into bowel and urine, and no spleen accumulation

- distribution behavior [3]: does not
SMILES: CCN(CC)CCN(CCS)CC[S][99Tc]1(=[O])[S]CCN(CCN(CC)CC)CC[S]1 [^99mTc-“BMEDA” alone]
- distribution seen in gamma camera images [4]: fast blood clearance, fast excretion into bowel and urine, and no spleen accumulation
